According to patent US20080125467A1, “Amino-Containing Compounds Which Inhibit Memapsin 2 Beta-Secretase Activity and Methods of Use Thereof” (priority 2004, published 2008):

Target: memapsin 2 (Homo sapiens, UniProt P56817)
Assay: Inhibition of memapsin 2 beta-secretase activity toward fluorogenic substrate FS-2
Type: biochemical
Details: pH 4, 37° C., 20 minutes pre-incubation, fluorogenic substrate FS-2, tight-binding model; read-out: M2 Ki

Sequence of memapsin 2 (Homo sapiens, UniProt P56817) (P56817 46-501): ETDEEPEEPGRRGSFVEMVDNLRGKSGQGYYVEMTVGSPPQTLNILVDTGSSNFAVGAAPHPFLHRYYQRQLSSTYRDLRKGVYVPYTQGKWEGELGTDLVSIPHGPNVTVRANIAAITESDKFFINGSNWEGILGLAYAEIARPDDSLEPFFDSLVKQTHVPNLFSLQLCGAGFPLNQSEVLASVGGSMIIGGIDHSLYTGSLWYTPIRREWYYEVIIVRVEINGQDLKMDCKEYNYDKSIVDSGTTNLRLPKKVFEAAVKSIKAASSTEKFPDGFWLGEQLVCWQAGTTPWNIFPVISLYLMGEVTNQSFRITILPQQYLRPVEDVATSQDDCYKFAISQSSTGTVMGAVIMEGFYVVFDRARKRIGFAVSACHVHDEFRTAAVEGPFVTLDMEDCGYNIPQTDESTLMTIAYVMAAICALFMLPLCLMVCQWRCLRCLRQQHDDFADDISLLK

Row | Ki [µM] | SMILES
1 | < 0.1 | CCC(Cn1nc(C)cc1C)C(=O)NC(CNC(=O)OC(C)(C)C)C(=O)NC(CC(C)C)C(O)CC(C)C(=O)NC(C(=O)NCc1nc(C)cs1)C(C)C (stereo not drawn) [tert-butyl 2-(2-((3,5-dimethyl-1H-pyrazol-1-yl)methyl)butanamido)-3-(5-hydroxy-2,7-dimethyl-8-(3-methyl-1-((4-methylthiazol-2-yl)methylamino)-1-oxobutan-2-ylamino)-8-oxooctan-4-ylamino)-3-oxopropylcarbamate]

Target: T1, memapsin 2 (Cricetulus griseus, UniProt G3IAK4)
T1 construct: endogenous in cells; host or cells: Chinese hamster ovary cells over-expressing human APP695 (London + Swedish)
T1 sequence (G3IAK4 22-501): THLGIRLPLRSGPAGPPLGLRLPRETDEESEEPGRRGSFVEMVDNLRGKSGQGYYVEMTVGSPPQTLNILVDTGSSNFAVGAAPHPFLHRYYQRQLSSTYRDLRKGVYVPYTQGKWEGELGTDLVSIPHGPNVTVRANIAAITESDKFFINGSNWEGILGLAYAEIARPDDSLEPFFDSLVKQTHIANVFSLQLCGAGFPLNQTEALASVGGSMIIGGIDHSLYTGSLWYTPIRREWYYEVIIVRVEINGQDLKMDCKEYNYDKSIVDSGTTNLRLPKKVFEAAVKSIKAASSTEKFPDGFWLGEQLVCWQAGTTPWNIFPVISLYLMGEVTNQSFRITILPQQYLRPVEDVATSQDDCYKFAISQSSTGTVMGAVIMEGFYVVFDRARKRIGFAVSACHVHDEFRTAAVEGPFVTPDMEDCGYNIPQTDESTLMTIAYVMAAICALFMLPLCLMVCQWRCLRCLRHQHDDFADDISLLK
Assay: Cellular Aβ IC50 determination (Aβ40 sandwich ELISA)
Type: cell-based
Details: Chinese hamster ovary cells over-expressing human APP695 with London and Swedish mutations, 24 h
Protocol: The potency of compounds against memapsin 2 activity was determined in a cellular assay of Aβ production. […] Chinese hamster ovary cells that over-express human APP695 with the London and Swedish mutations were seeded in multi-well plates at 10% confluency. Compounds were dissolved in DMSO to concentrations near 1 mM, and diluted into culture media to a final concentration near 4 μM (final 0.4% DMSO). Compounds were diluted serially and applied to cells in multi-well plates 48 h after seeding. Incubation was continued in 5% CO2 at 37 degrees C. for 24 h. Aliquots were removed and assayed for Aβ40 content using a sandwich ELISA (BioSource International). Amount of Aβ40 over the range of concentration of compounds, relative to control incubations, were fit to a 4-parameter IC50 model.

Row | SMILES | IC50 [µM]
2 | CCC(Cn1nc(C)cc1C)C(=O)NC(CNC(=O)OC(C)(C)C)C(=O)NC(CC(C)C)C(O)CC(C)C(=O)NC(C(=O)NCc1nc(C)cs1)C(C)C (stereo not drawn) [tert-butyl 2-(2-((3,5-dimethyl-1H-pyrazol-1-yl)methyl)butanamido)-3-(5-hydroxy-2,7-dimethyl-8-(3-methyl-1-((4-methylthiazol-2-yl)methylamino)-1-oxobutan-2-ylamino)-8-oxooctan-4-ylamino)-3-oxopropylcarbamate] | < 6
3 | CCC(Cn1nc(C)cc1C)C(=O)NC(CNC(=O)OC(C)(C)C)C(=O)NC(CC(C)C)C(O)CC(C)C(=O)NC(C(=O)NCC(F)(F)F)C(C)C (stereo not drawn) [tert-butyl 2-(2-((3,5-dimethyl-1H-pyrazol-1-yl)methyl)butanamido)-3-(5-hydroxy-2,7-dimethyl-8-(3-methyl-1-oxo-1-(2,2,2-trifluoroethylamino)butan-2-ylamino)-8-oxooctan-4-ylamino)-3-oxopropylcarbamate] | 6 to 100
4 | Cc1csc(CC(C)C(=O)NC(CNC(=O)OC(C)(C)C)C(=O)NC(Cc2cc(F)cc(F)c2)C(O)CC(C)C(=O)NC(C(=O)NCC(C)C)C(C)C)n1 (stereo not drawn) [tert-butyl 3-(1-(3,5-difluorophenyl)-3-hydroxy-6-(1-(isobutylamino)-3-methyl-1-oxobutan-2-ylamino)-5-methyl-6-oxohexan-2-ylamino)-2-(2-methyl-3-(4-methylthiazol-2-yl)propanamido)-3-oxopropylcarbamate] | 6 to 100
5 | Cc1cc(C)n(CC(N=[N+]=[N-])C(=O)NC(CNC(=O)OC(C)(C)C)C(=O)NC(CC(C)C)C(O)CC(C)C(=O)NC(C(=O)NCC(C)C)C(C)C)n1 (stereo not drawn) [tert-butyl 2-(2-azido-3-(3,5-dimethyl-1H-pyrazol-1-yl)propanamido)-3-(5-hydroxy-8-(1-(isobutylamino)-3-methyl-1-oxobutan-2-ylamino)-2,7-dimethyl-8-oxooctan-4-ylamino)-3-oxopropylcarbamate] | 6 to 100
6 | CCC(Cn1nc(C)cc1C)C(=O)NC(CNC(=O)OC(C)(C)C)C(=O)NC(CC(C)C)C(O)CC(C)C(=O)NC(C(=O)NCC(C)C)C(C)C (stereo not drawn) [tert-butyl 2-(2-((3,5-dimethyl-1H-pyrazol-1-yl)methyl)butanamido)-3-(5-hydroxy-8-(1-(isobutylamino)-3-methyl-1-oxobutan-2-ylamino)-2,7-dimethyl-8-oxooctan-4-ylamino)-3-oxopropylcarbamate] | < 6
7 | COC(Cn1nc(C)cc1C)C(=O)NC(CNC(=O)OC(C)(C)C)C(=O)NC(CC(C)C)C(O)CC(C)C(=O)NC(C(=O)NCC(C)C)C(C)C (stereo not drawn) [tert-butyl 2-(3-(3,5-dimethyl-1H-pyrazol-1-yl)-2-methoxypropanamido)-3-(5-hydroxy-8-(1-(isobutylamino)-3-methyl-1-oxobutan-2-ylamino)-2,7-dimethyl-8-oxooctan-4-ylamino)-3-oxopropylcarbamate] | > 100

Further lines, results first:

Row | IC50 [µM] | SMILES
8 | 6 to 100 | Cc1csc(CC(C)C(=O)NC(CNC(=O)OC(C)(C)C)C(=O)NC(Cc2ccccc2)C(O)CC(C)C(=O)NC(C(=O)NCC(C)C)C(C)C)n1 (stereo not drawn) [tert-butyl 3-(3-hydroxy-6-(1-(isobutylamino)-3-methyl-1-oxobutan-2-ylamino)-5-methyl-6-oxo-1-phenylhexan-2-ylamino)-2-(2-methyl-3-(4-methylthiazol-2-yl)propanamido)-3-oxopropylcarbamate]
9 | < 6 | CCC(Cc1nc(C)cs1)C(=O)NC(CNC(=O)OC(C)(C)C)C(=O)NC(CC(C)C)C(O)CC(C)C(=O)NC(C(=O)NCC(C)C)C(C)C (stereo not drawn) [tert-butyl 3-(5-hydroxy-8-(1-(isobutylamino)-3-methyl-1-oxobutan-2-ylamino)-2,7-dimethyl-8-oxooctan-4-ylamino)-2-(2-((4-methylthiazol-2-yl)methyl)butanamido)-3-oxopropylcarbamate]
10 | 6 to 100 | Cc1csc(CC(C)C(=O)NC(CN(C)S(C)(=O)=O)C(=O)NC(CC(C)C)C(O)CC(C)C(=O)NC(C(=O)NCC(C)C)C(C)C)n1 (stereo not drawn) [4-hydroxy-N-(1-(isobutylamino)-3-methyl-1-oxobutan-2-yl)-2,7-dimethyl-5-(2-(2-methyl-3-(4-methylthiazol-2-yl)propanamido)-3-(N-methylmethylsulfonamido)propanamido)octanamide]
11 | < 6 | Cc1csc(CC(C)C(=O)NC(CNS(C)(=O)=O)C(=O)NC(CC(C)C)C(O)CC(C)C(=O)NC(C(=O)NCC(C)C)C(C)C)n1 (stereo not drawn) [4-hydroxy-N-(1-(isobutylamino)-3-methyl-1-oxobutan-2-yl)propanamido)-3-(methylsulfonamido)propanamido)octanamide]
12 | < 6 | CCC(Cc1nc(C)cs1)C(=O)NC(CNC(=O)OC(C)C)C(=O)NC(CC(C)C)C(O)CC(C)C(=O)NC(C(=O)NCC(C)C)C(C)C (stereo not drawn) [isopropyl 3-(5-hydroxy-8-(1-(isobutylamino)-3-methyl-1-oxobutan-2-ylamino)-2,7-dimethyl-8-oxooctan-4-ylamino)-2-(2-((4-methylthiazol-2-yl)methyl)butanamido)-3-oxopropylcarbamate]
13 | 6 to 100 | Cc1csc(CC(C)C(=O)NC(CN)C(=O)NC(CC(C)C)C(O)CC(C)C(=O)NC(C(=O)NCC(C)C)C(C)C)n1 (stereo not drawn) [5-(3-amino-2-(2-methyl-3-(4-methylthiazol-2-yl)propanamido)propanamido)-4-hydroxy-N-(1-(isobutylamino)-3-methyl-1-oxobutan-2-yl)-2,7-dimethyloctanamide]
14 | > 100 | Cc1csc(COC(=O)N[C@@H](CNS(C)(=O)=O)C(=O)N[C@@H](CC(C)C)[C@@H](O)C[C@@H](C)C(=O)N[C@H](C(=O)NCC(C)C)C(C)C)n1
15 | < 6 | Cc1csc(COC(=O)NCC(NC(=O)C(C)Cc2nc(C)cs2)C(=O)NC(CC(C)C)C(O)CC(C)C(=O)NC(C(=O)NCC(C)C)C(C)C)n1 (stereo not drawn) [(4-methylthiazol-2-yl)methyl 3-(5-hydroxy-8-(1-(isobutylamino)-3-methyl-1-oxobutan-2-ylamino)-2,7-dimethyl-8-oxooctan-4-ylamino)-2-(2-methyl-3-(4-methylthiazol-2-yl)propanamido)-3-oxopropylcarbamate]
